Laboratory results reported in ChEMBL document CHEMBL1122397, “Synthesis and pharmacological characterization of (+/-)-5,9 alpha-dimethyl-2-[2-(4-fluorophenyl)ethyl]-2'-hydroxy-6,7-benzomorphan (fluorophen), a ligand suitable for visualization of opiate receptors in vivo” (J Med Chem, 1983).

Tests used:
Mus musculus = species: Mus musculus; assay: cells; conditions: Rattus norvegicus, Brain, 3 h
Opioid receptor = Opioid receptor (Rattus norvegicus, UniProt P33533+P34975+P33535); assay: (§1) Ability to displace 50% of (+/-) ethylketocyclazocine (2.8) in rat brain homogenate; type: tissue-based
[1] = target: Mu-type opioid receptor (Cavia porcellus) (UniProt P97266); assay: Relative potency to induce 50% of maximal effect in guinea pig ileum expressing Opioid receptor mu 1; type: tissue-based
Sequence of Mu-type opioid receptor (Cavia porcellus) (P97266 whole entry): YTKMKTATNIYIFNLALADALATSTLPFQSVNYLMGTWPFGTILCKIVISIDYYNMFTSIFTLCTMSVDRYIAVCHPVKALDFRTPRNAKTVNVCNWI

[2] = target: T1, Kappa-type opioid receptor (Homo sapiens, UniProt P41145); assay: Relative potency to induce 50% of maximal effect in rabbit vas deferens expressing Opioid receptor kappa 1; conditions: Oryctolagus cuniculus
T1 sequence (P41145 whole entry): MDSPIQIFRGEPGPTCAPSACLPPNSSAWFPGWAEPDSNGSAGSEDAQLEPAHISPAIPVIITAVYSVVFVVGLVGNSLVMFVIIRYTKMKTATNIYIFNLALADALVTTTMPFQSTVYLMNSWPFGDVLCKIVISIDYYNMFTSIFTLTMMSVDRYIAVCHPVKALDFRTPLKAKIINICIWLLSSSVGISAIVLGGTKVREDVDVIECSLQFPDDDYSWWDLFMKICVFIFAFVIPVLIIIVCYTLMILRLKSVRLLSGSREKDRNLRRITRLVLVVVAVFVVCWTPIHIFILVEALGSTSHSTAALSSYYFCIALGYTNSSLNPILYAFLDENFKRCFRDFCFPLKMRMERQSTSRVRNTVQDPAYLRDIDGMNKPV

[3] = target: T1, Kappa-type opioid receptor; assay: Ability to induce 50% of maximal effect in rabbit vas deferens expressing Opioid receptor kappa 1; type: tissue-based, Oryctolagus cuniculus
Mu-type opioid receptor = Mu-type opioid receptor (Cavia porcellus, UniProt P97266); assay: Ability to induce 50% of maximal effect in guinea pig ileum expressing Opioid receptor mu 1; type: tissue-based
Sequence of Mu-type opioid receptor (P97266 whole entry): as the sequence (P97266 whole entry) above

Rattus norvegicus [4] = species: Rattus norvegicus; assay: Ability to displace 50% of (-) naloxone(1.0) in rat brain homogenate
Rattus norvegicus [5] = species: Rattus norvegicus; assay: Ability to displace 50% of [3H]- labeled DADLE in rat brain homogenate
Rattus norvegicus [6] = species: Rattus norvegicus; assay: Relative potency in displacing (-) naloxone(1.0) in rat brain homogenate
Rattus norvegicus [7] = species: Rattus norvegicus; assay: Relative potency in displacing [3H]- labeled DADLE in rat brain homogenate
Rattus norvegicus [8] = species: Rattus norvegicus; assay: Relative potency in displacing ((+/-) ethylketocyclazocine (2.8)) in rat brain homogenate
Rattus norvegicus [9] = species: Rattus norvegicus; assay: as §1
[10] = target: Delta-type opioid receptor (Mus musculus) (UniProt P32300); assay: Relative potency to induce 50% of maximal effect in mouse vas deferens expressing Opioid receptor delta 1
Sequence of Delta-type opioid receptor (Mus musculus) (P32300 whole entry, looked up): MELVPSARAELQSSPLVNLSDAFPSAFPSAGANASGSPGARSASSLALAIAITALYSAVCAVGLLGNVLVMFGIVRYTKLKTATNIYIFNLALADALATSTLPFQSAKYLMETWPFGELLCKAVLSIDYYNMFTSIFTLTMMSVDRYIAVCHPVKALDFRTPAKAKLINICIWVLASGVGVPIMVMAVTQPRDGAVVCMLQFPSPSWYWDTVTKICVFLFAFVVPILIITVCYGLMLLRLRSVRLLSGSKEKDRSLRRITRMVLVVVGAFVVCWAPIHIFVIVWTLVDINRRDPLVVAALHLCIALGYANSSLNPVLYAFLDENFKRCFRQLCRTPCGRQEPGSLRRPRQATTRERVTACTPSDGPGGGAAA

SMILES: CC(C)C[C@H](NC(=O)[C@H](Cc1ccccc1)NC(=O)CNC(=O)CNC(=O)[C@@H](N)Cc1ccc(O)cc1)C(=O)O [ENKEPHALIN]
- IC50 (Mus musculus): 0.011 µM

SMILES: CC[C@@]12CCN(CC3CC3)C(C(=O)c3ccc(O)cc31)[C@@H]2C [ETHYLKETOCYCLAZOCINE]
- IC50 (Opioid receptor): 0.0084 µM

SMILES: CC1C2Cc3ccc(O)cc3C1(C)CCN2CCc1ccccc1 (stereo not drawn) [PHENAZOCINE]
- Relative Potency [1]: 7.9
- Relative Potency [2]: 0.4
- IC50 [3]: 0.121 µM
- IC50 (Mu-type opioid receptor): 0.0098 µM
- IC50 (Rattus norvegicus [4]): 0.082 µM
- IC50 (Rattus norvegicus [5]): 0.026 µM
- Relative Potency (Rattus norvegicus [6]): 2.4
- Relative Potency (Rattus norvegicus [7]): 0.42
- Relative Potency (Rattus norvegicus [8]): 0.13
- IC50 (Rattus norvegicus [9]): 0.065 µM
- Relative Potency [10]: 1.2
